Data: PubChem BioAssay (NCI)
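Where inhibition never reached the appropriate level, the endpoint shown equals the highest concentration tested. Otherwise, values were interpolated linearly from a five-concentration, 48-hour dose response in 96-well plates. At the GI50, growth is halved. Definition used: TGI = concentration required for complete inhibition of growth.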

Key:
Experiment in all cases: growth of human tumour cells (NCI), 48 h
[1] = system: CAKI-1 renal
[2] = system: COLO 205 colon
[3] = system: HOP-62 NSCLC
[4] = system: HOP-92 NSCLC
[5] = system: IGROV1 ovarian
[6] = system: MALME-3M melanoma
[7] = system: OVCAR-5 ovarian
[8] = system: SN12C renal
[9] = system: TK-10 renal
[10] = system: UACC-257 melanoma

`C[C@@H](Oc1cc(-n2cnc3ccc(OC4CCN(C)CC4)cc32)sc1C(N)=O)c1ccccc1Cl` was tested, and the GI50 [1] was 1.08 µM, the TGI [1] was 6.08 µM and the GI50 [2] was 0.00926 µM. For the same molecule, the TGI [2] was 0.106 µM, the GI50 [3] was 0.0166 µM and the TGI [3] was 3.29 µM. For the same molecule, the GI50 [4] was 0.0387 µM, the TGI [4] was 2.78 µM and the GI50 [5] was 0.0622 µM. The TGI [5] was 6.88 µM, the GI50 [6] was 3.89 µM and the TGI [6] was 7.89 µM. For the same molecule, the GI50 [7] was 0.024 µM, the TGI [7] was 5.76 µM and the GI50 [8] was 0.255 µM. For the same molecule, the TGI [8] was 4.75 µM, the GI50 [9] was 1.79 µM and the TGI [9] was 5.75 µM. For the same molecule, the GI50 [10] was 0.0249 µM and the TGI [10] was 5.4 µM.

`COC(COC(N)=O)C1=C(N2CC2)C(=O)C(C)=C(N2CC2)C1=O` (stereo not given) showed a TGI [1] of 0.085 µM, a TGI [2] of 0.389 µM and a TGI [3] of 0.227 µM. It also gave a TGI [4] of 1.15 µM, a TGI [5] of 0.995 µM and a TGI [6] of 0.301 µM. It also gave a TGI [7] of 0.71 µM, a TGI [8] of 1.28 µM and a TGI [9] of 2.64 µM. For the same molecule, the TGI [10] was 0.579 µM.

For `CCc1cccc(C(C)C)c1NC(=O)C(=O)C1C(=O)Nc2ccccc2S1=O` (stereo not given), the TGI [1] was greater than 100 µM, the TGI [2] was greater than 100 µM and the TGI [3] was greater than 100 µM. For the same molecule, the TGI [4] was greater than 100 µM, the TGI [5] was greater than 100 µM and the TGI [6] was greater than 100 µM. For the same molecule, the TGI [7] was greater than 100 µM, the TGI [8] was greater than 100 µM and the TGI [9] was greater than 100 µM. The TGI [10] was greater than 100 µM.

`CN(CCS(=O)(=O)N1C(=O)C2CCCN2C(=O)[C@@H]1Cc1ccccc1)C(=O)OCc1ccccc1` (stereo not given in full) showed a TGI [1] greater than 100 µM, a TGI [2] greater than 100 µM and a TGI [3] greater than 100 µM. It also gave a TGI [4] greater than 100 µM, a TGI [5] greater than 100 µM and a TGI [6] greater than 100 µM. For the same molecule, the TGI [7] was greater than 100 µM, the TGI [8] was greater than 100 µM and the TGI [9] was greater than 100 µM. For the same molecule, the TGI [10] was greater than 100 µM.

`O=C1Nc2c(ccc(Cl)c2Cl)/C1=C/c1cc(Br)c(O)c(Br)c1` was tested, and the GI50 [1] was 2.59 µM, the TGI [1] was greater than 37 µM and the GI50 [2] was 5.05 µM. The TGI [2] was 27.4 µM, the GI50 [3] was 11.9 µM and the TGI [3] was greater than 68 µM. The GI50 [4] was 7.17 µM, the TGI [4] was 62.3 µM and the GI50 [5] was 8.91 µM. The TGI [5] was greater than 55.8 µM, the GI50 [6] was 2.53 µM and the TGI [6] was 32.4 µM. The GI50 [7] was 20.6 µM, the TGI [7] was greater than 74 µM and the GI50 [8] was 10.7 µM. It also gave a TGI [8] greater than 100 µM, a GI50 [9] of 12 µM and a TGI [9] greater than 100 µM. It also gave a GI50 [10] of 6.19 µM and a TGI [10] of 26.6 µM.

In the case of `COc1ccc(Cc2c3cc(O)c(=O)cc-3ccn2C)cc1`, the TGI [1] is reported as greater than 100 µM, the TGI [2] is reported as greater than 100 µM and the TGI [3] is reported as 82.4 µM. The TGI [4] was greater than 100 µM, the TGI [5] was greater than 100 µM and the TGI [6] was greater than 88.1 µM. It also gave a TGI [7] greater than 100 µM, a TGI [8] greater than 100 µM and a TGI [9] greater than 100 µM. The TGI [10] was greater than 89.8 µM.

For `O=C1[C@H]2ON(c3ccccc3)C(c3ccc([N+](=O)[O-])cc3)[C@H]2C(=O)N1c1ccc(Cc2ccc(N3C(=O)[C@@H]4ON(c5ccccc5)C(c5ccc([N+](=O)[O-])cc5)[C@@H]4C3=O)cc2)cc1` (stereo not given in full), the TGI [1] was greater than 100 µM, the TGI [2] was greater than 100 µM and the TGI [3] was greater than 100 µM. The TGI [4] was 99 µM, the TGI [5] was greater than 100 µM and the TGI [6] was greater than 100 µM. For the same molecule, the TGI [7] was greater than 100 µM, the TGI [8] was greater than 100 µM and the TGI [9] was greater than 100 µM. It also gave a TGI [10] greater than 100 µM.

With `Nc1nc(/C=C\c2ccc([N+](=O)[O-])s2)nc(N2CCN(c3ccccc3)CC2)n1` the GI50 [1] was 18.1 µM, the TGI [1] was 39.1 µM and the GI50 [2] was 15.4 µM. The TGI [2] was 32.1 µM, the GI50 [3] was 29 µM and the TGI [3] was 64.3 µM. It also gave a GI50 [4] of 22.8 µM, a TGI [4] of 57.1 µM and a GI50 [5] of 14.5 µM. The TGI [5] was 34.7 µM, the GI50 [6] was 24.9 µM and the TGI [6] was 59.8 µM. The GI50 [7] was 40 µM, the TGI [7] was 98.3 µM and the GI50 [8] was 14.3 µM. For the same molecule, the TGI [8] was 34.5 µM, the GI50 [9] was 72.1 µM and the TGI [9] was greater than 100 µM. The GI50 [10] was 20.8 µM and the TGI [10] was 44.2 µM.

Molecule `COc1ccc2c(c1)C(=O)c1c-2n(CCCN(C)C)c(=O)c2ccccc12` has a GI50 [1] of 0.243 µM, a TGI [1] of 4.9 µM and a GI50 [2] of 0.187 µM. The TGI [2] was 2.62 µM, the GI50 [3] was 0.433 µM and the TGI [3] was 11.2 µM. The GI50 [4] was 0.886 µM, the TGI [4] was 4.57 µM and the GI50 [5] was 0.344 µM. For the same molecule, the TGI [5] was 12.3 µM, the GI50 [6] was 0.483 µM and the TGI [6] was 2.06 µM. The GI50 [7] was 0.515 µM, the TGI [7] was 12.7 µM and the GI50 [8] was 0.255 µM. For the same molecule, the TGI [8] was 5.7 µM, the GI50 [9] was 0.722 µM and the TGI [9] was 9.32 µM. It also gave a GI50 [10] of 0.929 µM and a TGI [10] of 6.22 µM.

`Cc1nc2sccn2c1C(=O)NN` gave a TGI [1] greater than 100 µM, a TGI [2] greater than 100 µM and a TGI [3] greater than 100 µM. It also gave a TGI [4] greater than 100 µM, a TGI [5] greater than 100 µM and a TGI [6] greater than 100 µM. For the same molecule, the TGI [7] was greater than 100 µM, the TGI [8] was greater than 100 µM and the TGI [9] was greater than 100 µM. It also gave a TGI [10] greater than 100 µM.

In the case of `COc1ccc2ncn(-c3cc(O[C@H](C)c4ccccc4C(F)(F)F)c(C(N)=O)s3)c2c1`, the GI50 [1] is reported as 1.65 µM, the TGI [1] is reported as 17.5 µM and the GI50 [2] is reported as 0.0838 µM. It also gave a TGI [2] of 3.24 µM, a GI50 [3] of 0.105 µM and a TGI [3] of 4.18 µM. For the same molecule, the GI50 [4] was 0.143 µM, the TGI [4] was 6.44 µM and the GI50 [5] was 0.312 µM. It also gave a TGI [5] of 10.5 µM, a GI50 [6] of 4.5 µM and a TGI [6] of 9.51 µM. It also gave a GI50 [7] of 0.162 µM, a TGI [7] of 14.9 µM and a GI50 [8] of 1.19 µM. It also gave a TGI [8] of 7.74 µM, a GI50 [9] of 1.33 µM and a TGI [9] of 7.22 µM. It also gave a GI50 [10] of 2.55 µM and a TGI [10] of 6.28 µM.

Work on `O=C(CCC(=O)Nc1ccc(Cl)c(Cl)c1)Cc1nc2ccccc2o1` yielded a TGI [1] greater than 100 µM, a TGI [2] greater than 100 µM and a TGI [3] greater than 100 µM. It also gave a TGI [4] greater than 100 µM, a TGI [5] greater than 100 µM and a TGI [6] greater than 100 µM. It also gave a TGI [7] greater than 100 µM, a TGI [8] greater than 100 µM and a TGI [9] greater than 100 µM. It also gave a TGI [10] greater than 100 µM.

Work on `CC(C)(C)C(=O)OCOP(=O)(NCc1ccccc1)C1CCCN(O)C1=O` (stereo not given) yielded a GI50 [1] of 3.5 µM, a TGI [1] greater than 100 µM and a GI50 [2] of 2.47 µM. The TGI [2] was 13.7 µM, the GI50 [3] was 2.55 µM and the TGI [3] was 32.8 µM. For the same molecule, the GI50 [4] was 1.06 µM, the TGI [4] was 7.72 µM and the GI50 [5] was 2.91 µM. The TGI [5] was 9.59 µM, the GI50 [6] was 1 µM and the TGI [6] was 6.96 µM. The GI50 [7] was 8.99 µM, the TGI [7] was greater than 100 µM and the GI50 [8] was 0.752 µM. The TGI [8] was 9.21 µM, the GI50 [9] was 3.12 µM and the TGI [9] was 43.2 µM. The GI50 [10] was 5.11 µM and the TGI [10] was 55.4 µM.

With `CC(=O)Nc1ccc(/C=C/C(=O)c2sc(-c3cccnc3)nc2C)cc1` the TGI [1] was greater than 100 µM, the TGI [2] was greater than 100 µM and the TGI [3] was greater than 100 µM. It also gave a TGI [4] greater than 100 µM, a TGI [5] greater than 100 µM and a TGI [6] greater than 100 µM. For the same molecule, the TGI [7] was greater than 100 µM, the TGI [8] was greater than 100 µM and the TGI [9] was greater than 100 µM. The TGI [10] was greater than 100 µM.

Molecule `Cc1nc([N+](=O)[O-])cn1-c1nc2ccccn2c1[N+](=O)[O-]` has a TGI [1] greater than 100 µM, a TGI [2] greater than 100 µM and a TGI [3] greater than 100 µM. For the same molecule, the TGI [4] was greater than 100 µM, the TGI [5] was greater than 100 µM and the TGI [6] was greater than 100 µM. For the same molecule, the TGI [7] was greater than 100 µM, the TGI [8] was greater than 100 µM and the TGI [9] was greater than 100 µM. It also gave a TGI [10] greater than 100 µM.

In the case of `O=C(C(=O)c1cc2ccccc2[nH]1)c1cc2ccccc2[nH]1`, the TGI [1] is reported as greater than 347 µM, the TGI [2] is reported as greater than 347 µM and the TGI [3] is reported as greater than 347 µM. The TGI [4] was greater than 347 µM, the TGI [5] was greater than 347 µM and the TGI [6] was greater than 347 µM. For the same molecule, the TGI [7] was greater than 347 µM, the TGI [8] was greater than 347 µM and the TGI [9] was greater than 347 µM. For the same molecule, the TGI [10] was greater than 347 µM.
